Assay results taken from US9598440B2, “Inhibitors of IRAK4 activity” (MERCK SHARP & DOHME CORP., priority 2012, dated 2017).

molecular target: IRAK4 (Homo sapiens (Human), UniProt Q9NWZ3); experiment: Determination of IRAK4 kinase activity (IMAP fluorescence polarization, phosphorylation of fluorescent peptide substrate); type: biochemical; settings: 0.5 nM GST tagged IRAK4, 100 nM peptide substrate RP7030, 100 μM ATP, 30 minutes at 25° C.
Method in brief: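 GST-tagged IRAK4 (0.5 nM) phosphorylated 100 nM fluorescent peptide substrate with 100 µM ATP in Tris-HCl pH 7.2, 1 mM MgCl2, 1 mM DTT, 0.01% Tween 20 for 30 min at 25 °C. Phosphorylation read by IMAP nanoparticle binding as fluorescence polarization increase.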

Sequence of IRAK4 (Q9NWZ3 whole entry): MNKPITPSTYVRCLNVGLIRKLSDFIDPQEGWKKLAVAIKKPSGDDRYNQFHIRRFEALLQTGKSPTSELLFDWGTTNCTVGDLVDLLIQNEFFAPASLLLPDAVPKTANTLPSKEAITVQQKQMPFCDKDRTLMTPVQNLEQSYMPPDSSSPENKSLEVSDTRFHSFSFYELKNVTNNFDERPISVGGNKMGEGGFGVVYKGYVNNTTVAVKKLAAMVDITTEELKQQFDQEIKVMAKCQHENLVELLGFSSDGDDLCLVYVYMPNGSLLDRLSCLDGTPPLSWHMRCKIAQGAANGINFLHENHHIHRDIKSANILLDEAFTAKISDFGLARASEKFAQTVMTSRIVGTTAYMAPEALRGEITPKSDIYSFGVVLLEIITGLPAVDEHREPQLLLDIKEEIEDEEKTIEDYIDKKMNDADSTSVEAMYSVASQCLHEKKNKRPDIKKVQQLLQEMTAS

Row | IC50 | Compound
1 | 2.65 µM | CN1CCC(Nc2ncc(-c3nc4ccccc4s3)c(N[C@@H]3C[C@H](CO)[C@@H](O)[C@H]3O)n2)CC1 [Example 53, (1R,2S,3R,5R)-3-((5-(benzo[d]thiazol-2-yl)-2-((1-methylpiperidin-4-yl)amino)pyrimidin-4-yl)amino)-5-(hydroxymethyl)cyclopentane-1,2-diol]
2 | 0.736 µM | OC[C@H]1C[C@@H](Nc2nc(NC3CNC3)ncc2-c2nc3ccccc3s2)[C@H](O)[C@@H]1O [Example 54, (1R,2S,3R,5R)-3-((2-(azetidin-3-ylamino)-5-(benzo[d]thiazol-2-yl)pyrimidin-4-yl)amino)-5-(hydroxymethyl)cyclopentane-1,2-diol]
3 | 0.483 µM | OC[C@H]1C[C@@H](Nc2nc(NC3CCC3)ncc2-c2ccc3ccccc3n2)[C@H](O)[C@@H]1O [Example 56, 2-(cyclobutylamino)-6-(((1R,2S,3R,4R)-2,3-dihydroxy-4-(hydroxymethyl)cyclopentyl)amino)-5-(quinolin-2-yl)pyrimidine]
4 | 10.6 µM | OC[C@H]1C[C@@H](Nc2nc(NC3COC3)ncc2-c2ccc3ccccc3n2)[C@H](O)[C@@H]1O [Example 57, 6-(((1R,2S,3R,4R)-2,3-dihydroxy-4-(hydroxymethyl)cyclopentyl)amino)-2-(oxetan-3-ylamino)-5-(quinolin-2-yl)pyrimidine]
5 | 0.008 µM | COc1cc(Nc2ncc(-c3ccc4ccccc4n3)c(N[C@@H]3C[C@H](CO)[C@@H](O)[C@H]3O)n2)ccn1 [Example 58, 6-(((1R,2S,3R,4R)-2,3-dihydroxy-4-(hydroxymethyl)cyclopentyl)amino)-2-((2-methoxypyridin-4-yl)amino)-5-(quinolin-2-yl)pyrimidine]
6 | 0.001 µM | Cc1cc(Nc2ncc(-c3ccc4ccccc4n3)c(N[C@@H]3C[C@H](CO)[C@@H](O)[C@H]3O)n2)cc(C)n1 [Example 59, 6-(((1R,2S,3R,4R)-2,3-dihydroxy-4-(hydroxymethyl)cyclopentyl)amino)-2-((2,6-dimethylpyridin-4-yl)amino)-5-(quinolin-2-yl)pyrimidine]
7 | 1.47 µM | OC[C@H]1C[C@@H](Nc2nc(NC3CC3)ncc2-c2ccc3ccccc3n2)[C@H](O)[C@@H]1O [Example 60, 2-(cyclopropylamino)-6-(((1R,2S,3R,4R)-2,3-dihydroxy-4-(hydroxymethyl)cyclopentyl)amino)-5-(quinolin-2-yl)pyrimidine]
8 | 0.154 µM | CC(C)n1ccc(Nc2ncc(-c3ccc4ccccc4n3)c(N[C@@H]3C[C@H](CO)[C@@H](O)[C@H]3O)n2)cc1=O [Example 62, 6-(((1R,2S,3R,4R)-2,3-dihydroxy-4-(hydroxymethyl)cyclopentyl)amino)-2-((1-isopropyl-2-oxo-1,2-dihydropyridin-4-yl)amino)-5-(quinolin-2-yl)pyrimidine]
9 | 0.043 µM | OC[C@H]1C[C@@H](Nc2nc(Nc3ccnc(OC4CC4)c3)ncc2-c2ccc3ccccc3n2)[C@H](O)[C@@H]1O [Example 63, 2-((2-cyclopropoxypyridin-4-yl)amino)-6-(((1R,2S,3R,4R)-2,3-dihydroxy-4-(hydroxymethyl)cyclopentyl)amino)-5-(quinolin-2-yl)pyrimidine]
10 | 0.241 µM | Nc1ncc(-c2nccs2)c(N[C@@H]2C[C@H](CO)[C@@H](O)[C@H]2O)n1 [Example 64, 2-amino-6-(((1R,2S,3R,4R)-2,3-dihydroxy-4-(hydroxymethyl)cyclopentyl)amino)-5-(thiazol-2-yl)pyrimidine]
11 | 0.26 µM | OC[C@H]1C[C@@H](Nc2nc(Nc3ccncc3)ncc2-c2nccs2)[C@H](O)[C@@H]1O [Example 65, 6-(((1R,2S,3R,4R)-2,3-dihydroxy-4-(hydroxymethyl)cyclopentyl)amino)-2-(pyridin-4-ylamino)-5-(thiazol-2-yl)pyrimidine]

Row | Compound | IC50
12 | CC(C)Oc1cc(Nc2ncc(-c3ccc4ccccc4n3)c(N[C@@H]3C[C@H](CO)[C@@H](O)[C@H]3O)n2)ccn1 [Example 61, 6-(((1R,2S,3R,4R)-2,3-dihydroxy-4-(hydroxymethyl)cyclopentyl)amino)-2-((2-isopropoxypyridin-4-yl)amino)-5-(quinolin-2-yl)pyrimidine] | 0.027 µM
